# Measurements reported in patent publication US9028855B2, “Plant additives and uses thereof to modulate the synthesis of membrane glycerolipids in planta” (Commissariat a l'Energie Atomique et aux Energies …, priority 2009, dated 2015).
# Entries after “also recorded” stand apart in the source; their conditions may differ.
# How the values were obtained:
# A. thaliana = assay: Root growth (primary root) of plants on high phosphate medium supplied with compound; assay type: in vivo; conditions: for Root Growth: expressed as a percentage having regard to a control, +P control 100, −P 20; for primary root growth (in words): high phosphate medium supplied with compound
# Text: In response to phosphate starvation, the primary root growth is inhibited (Svistoonoff et al., 2007).
# wild type seedlings = assay: Anthocyanins content (spectrophotometric); assay type: in vivo, A. thaliana; parameters: key to Antho: anthocyanin content as A530 - 2.2*A652; conditions: accumulation of anthocyanes; +P control 46, −P 1008
# Experimental: Anthocyanins were extracted with propanol:HCl:H2O (81:1:18) for 5 min at room temperature and 3 min at 100° C. Samples are centrifuged for 10 min at 4° C. Supernatants were collected and absorption measured at 530 nm and […]. Anthocyanin content was calculated as A530-2.2A652 (Lange et al., 1971).
# [1] = tested on: phosphate transporter PHT1;4; assay: 8′G::GUS, follow-up of the expression of the phosphate transporter PHT1;4 (GUS staining); assay type: in vivo, A. thaliana; conditions: compound added to the cultivation medium
# Text: 8′G cell line was obtained as follows: for the PHT1;4 promoter fusion, a 2 kb region upstream of the ORF of PHT1;4 was cloned in the vector pENTR/D-TOPO (pENTRT™/D-TOPO® Cloning Kit, ref. K2400-20, Invitrogen) and transferred to pKGWFS7 (Karimi et al., 2002) by recombination using Gateway BP (Gateway® BP Clonase® enzyme mix, ref. 11789-013, Invitrogen) and LR Clonase enzyme mixes (LR Clonase® II Plus enzyme, ref. 12538-120, Invitrogen), respectively, to produce the pPHT1;4:GUS-GFP gene fusion. This fusion was then introduced into the Arabidopsis genome via the Agrobacterium-mediated transformation system (Logemann et al., 2006).
# Plants were examined for GUS activity by dipping the samples in a GUS staining solution (50 mM sodium phosphate buffer pH 7.0; 0.01% Triton X-100, 1 mM K3Fe(CN)6, 1 mM K4Fe(CN)6, 1 mg/ml 5-dromo-4-chloro-3-indolyl (3-D-GLUCURONIDE (X-Gluc A) and incubated at 37° C. over-night. After staining, the plants were fixed 2 hours in 50 mM sodium phosphate buffer pH 7.0; 1% glutaraldehyde; 4% formaldehyde.
# phopholipase Dz2 = assay: PLDz::GUS, follow-up of the expression of the gene encoding phospholipase Dz2 (GUS staining); assay type: in vivo, A. thaliana; conditions: summary over PLDz::GUS and MGD3::GUS; specific = without impact on growth or PHT1;4
# Experimental: pPLDZ2:GUS-GFP cell line is as described by Cruz-Ramirez et al. (Cruz-Ramirez et al., 2006), and expressed a GUS-GFP fusion under the control of the pldz2 promoter. […] Plants were examined for GUS activity by dipping the samples in a GUS staining solution (50 mM sodium phosphate buffer pH 7.0; 0.01% Triton X-100, 1 mM K3Fe(CN)6, 1 mM K4Fe(CN)6, 1 mg/ml 5-dromo-4-chloro-3-indolyl (3-D-GLUCURONIDE (X-Gluc A) and incubated at 37° C. over-night. After staining, the plants were fixed 2 hours in 50 mM sodium phosphate buffer pH 7.0; 1% glutaraldehyde; 4% formaldehyde. In response to phosphate starvation, the lipid metabolism is modified (Benning and Ohta, 2005). Plants preferentially synthesize sulpho- and galacto-lipids instead of phospholipids. Several enzymes are involved in this remobilisation.
Compound,Root Growth (A. thaliana),Antho (wild type seedlings),primary root growth (in words) (A. thaliana),"PHT1;4 expression (in words, summary of analogues) [1]",lipid metabolism: induction of PLDζ2 and/or MGD3 genes (in words) (phopholipase Dz2)
CCC1CC(=O)C(=CNc2cc(F)cc(F)c2)C(=O)C1 (centres unmarked) [#32],13 % of control,103,,,
CC1(C)CC(=O)C(=CNc2cccc([N+](=O)[O-])c2)C(=O)C1 [#24],54 % of control,240,,,
COc1ccc(NC=C2C(=O)CC(C)(C)CC2=O)cc1OC [#37],69 % of control,204,do not induce a reduction of the root growth,induce expression of the Pht1;4 gene,
CC1(C)CC(=O)C(=CNc2ccc(F)c(Cl)c2)C(=O)C1 [#3],41 % of control,806,,,
O=C1CC(c2ccccc2)CC(=O)C1=CNCc1ccccn1 (centres unmarked) [#17],60 % of control,408,,,
CC1(C)CC(=O)C(=CNc2ccc(Br)cc2)C(=O)C1 [#27],98 % of control,43,without altering the root growth; also recorded: do not induce a reduction of the root growth,induced PHT 1;4 expression; also recorded: induce expression of the Pht1;4 gene,
Cc1ccc(NC=C2C(=O)CC(C)(C)CC2=O)cc1Cl [#6],53 % of control,,,,
O=C1CCCC(=O)C1=CNc1ccc(Br)cc1 [#45],67 % of control,106,,,impact specifically the lipid metabolism inducing PLD[…]2 and MGD3; also recorded: specificity in lipids remodeling
Cc1ccc(NC=C2C(=O)CC(C)(C)CC2=O)nc1 [#19],47 % of control,193,,,
Cc1ccc(NC=C2C(=O)CC(C)(C)CC2=O)c(C)c1 [#9],71 % of control,130,,,
Cc1cccc(NC=C2C(=O)CC(C)(C)CC2=O)c1 [#7],75 % of control,172,without altering the root growth,induced PHT 1;4 expression,
CSc1ccc(NC=C2C(=O)CC(C)(C)CC2=O)cc1 [#35],60 % of control,208,,,
CC1(C)CC(=O)C(=C(S)Nc2ccccc2)C(=O)C1 [#31],89 % of control,62,,,impact specifically the lipid metabolism inducing PLD[…]2 and MGD3; also recorded: specificity in lipids remodeling
COc1cccc(NC=C2C(=O)CC(C)(C)CC2=O)c1 [#47],70 % of control,324,without altering the root growth; also recorded: do not induce a reduction of the root growth,induced PHT 1;4 expression; also recorded: induce expression of the Pht1;4 gene,
CC1(C)CC(=O)C(=CNc2ccccc2C(N)=O)C(=O)C1 [#39],60 % of control,183,,,
CC1(C)CC(=O)C(=CNc2ccccn2)C(=O)C1 [#15],40 % of control,283,,,
CC1(C)CC(=O)C(=CNc2cccc(Cl)c2)C(=O)C1 [#10],41 % of control,225,,,
O=C1CCCC(=O)C1=CNc1cc(Cl)cc(Cl)c1 [#33],59 % of control,167,,,
Cc1ccc(NC=C2C(=O)CC(C)(C)CC2=O)cc1 [#1],64 % of control,274,without altering the root growth,induced PHT 1;4 expression,
CC1(C)CC(=O)C(=CNc2ccncc2)C(=O)C1 [#13],42 % of control,513,,,
CC1(C)CC(=O)C(=CNc2ccc(F)cc2)C(=O)C1 [#5],73 % of control,110,without altering the root growth; also recorded: do not induce a reduction of the root growth,induced PHT 1;4 expression; also recorded: induce expression of the Pht1;4 gene,

Compound,Root Growth (A. thaliana),Antho (wild type seedlings),primary root growth (in words) (A. thaliana),"PHT1;4 expression (in words, summary of analogues) [1]",lipid metabolism: induction of PLDζ2 and/or MGD3 genes (in words) (phopholipase Dz2)
CC1(C)CC(=O)C(=CNc2ccc(F)c(F)c2)C(=O)C1 [#14],61 % of control,150,without altering the root growth,induced PHT 1;4 expression,
CC1CC(=O)C(=CNc2ccccc2)C(=O)C1 (centres unmarked) [#29],85 % of control,146,,,impact specifically the lipid metabolism inducing PLD[…]2 and MGD3; also recorded: specificity in lipids remodeling
Cc1cccc(CN/C=C2/C(=O)Nc3ccccc32)n1 [#18],88 % of control,195,,,
CC1(C)CC(=O)C(=CNc2ccc(N)cc2)C(=O)C1 [#42],68 % of control,226,,,impact specifically the lipid metabolism inducing PLD[…]2 and MGD3; also recorded: specificity in lipids remodeling
CC1(C)CC(=O)C(=CNCc2ccccn2)C(=O)C1 [#11],63 % of control,163,without altering the root growth,induced PHT 1;4 expression,
Cc1ccnc(NS(=O)(=O)c2ccc(NC=C3C(=O)CC(C)(C)CC3=O)cc2)n1 [#26],6 % of control,640,,,
CC1(C)CC(=O)C(=CNc2ccc(S(C)(=O)=O)cc2)C(=O)C1 [#36],58 % of control,235,,,
CC(=NO)c1ccc(NC=C2C(=O)CC(C)(C)CC2=O)cc1 [#25],63 % of control,405,,,
CC1(C)CC(=O)C(=CNc2ncc(C(F)(F)F)cc2Cl)C(=O)C1 [#20],72 % of control,142,without altering the root growth; also recorded: do not induce a reduction of the root growth,induced PHT 1;4 expression; also recorded: induce expression of the Pht1;4 gene,
CC1(C)CC(=O)C(=CNc2ccc(I)cc2)C(=O)C1 [#8],56 % of control,37,,,
O=C1CCCC(=O)C1=CNc1ccc(Cl)c(Cl)c1 [#43],67 % of control,186,without altering the root growth; also recorded: do not induce a reduction of the root growth,induced PHT 1;4 expression; also recorded: induce expression of the Pht1;4 gene,
COc1ccc(NC=C2C(=O)CCCC2=O)cc1 [#46],70 % of control,167,,,specificity in lipids remodeling
Cc1c(Cl)cccc1NC=C1C(=O)CC(C)(C)CC1=O [#12],57 % of control,850,,,
CC1(C)CC(=O)C(=CNc2ccc(O)cc2)C(=O)C1 [#38],60 % of control,206,,,
CC1(C)CC(=O)C(=CNc2cccnc2)C(=O)C1 [#16],40 % of control,431,,,
CC(=O)c1ccc(NC=C2C(=O)CC(C)(C)CC2=O)cc1 [#34],59 % of control,289,,,
O=C1CCCC(=O)C1=CNc1ccc(Cl)cc1Cl [#44],68 % of control,123,without altering the root growth; also recorded: do not induce a reduction of the root growth,induced PHT 1;4 expression; also recorded: induce expression of the Pht1;4 gene,
CC1(C)CC(=O)C(=CNc2cc(Cl)cc(Cl)c2)C(=O)C1 [#4],50 % of control,210,,,
O=C1CC(c2ccccc2)CC(=O)C1=CNc1ccccc1 (centres unmarked) [#28],100 % of control,247,do not induce a reduction of the root growth,induce expression of the Pht1;4 gene,
CC1(C)CC(=O)C(=CNc2ccc(Br)cc2)C(=O)C1 [#2],59 % of control,258,,,
